Experimental data taken from patent USRE49351E1, “Cytoprotective agent” (Biogen MA Inc., priority 2009, dated 2023).
Where a name gives a salt, the structure may show the parent alone.

Legend:
[1] = modified H-ORAC (mH-ORAC) assay; assay type: biochemical; details: acetone solution, acetone final concentration 1.25%
Description: (§1) To study the free radical scavenging activity of a triprenyl phenol compound, the following H-ORAC (hydrophilic oxygen radical absorbance capacity) assay, and modified H-ORAC (mH-ORAC) assay were conducted.
(§2) SMTP compounds evaluated by H-ORAC were used respectively in a form of a sodium salt aqueous solution, and the compounds evaluated by mH-ORAC were used respectively in a form of an acetone solution.
(§3) In H-ORAC a test compound was diluted appropriately with a buffer solution (75 mM phosphate buffer solution, pH 7.4) and used for measurement. In mH-ORAC a test compound was diluted appropriately by a 50% (v/v) acetone solution, prepared by diluting an acetone solution with water, to prepare a solution of 40-fold the final concentration. […] As for the reference material Trolox, 500 μM/buffer solution was diluted appropriately with a buffer solution.
(§4) To a 96-well microplate (transparent, flat bottom, black wall) 50 μL of a test compound solution or a Trolox solution was placed, and additionally 100 μL of a fluorescein 140 nM/buffer solution as a fluorescent substance was added (final concentration 70 nM), followed by incubation at 37° C. for […].
(§5) As a free radical generator, 50 μL of a 48 mM/buffer solution of 2,2′-azobis(amidinopropane)dihydrochloride was added (final concentration 12 mM), and fluorescence intensity at fluorescence wavelength of 535 nm with excitation wavelength of 485 nm was measured at 2 min intervals for 90 min. The calibration curve was prepared between the Trolox final concentrations of 5 to 15 μM. The measurement was conducted by changing the concentration with n=3, and plotted on a diagram with time on the abscissa and the fluorescence intensity on the ordinate. Therewith evaluation was made using the value obtained by reducing the area under the curve for the blank from the area under the curve for the sample. The result was expressed as an equivalent to Trolox.

[2] = H-ORAC (hydrophilic oxygen radical absorbance capacity) assay; assay type: biochemical; details: sodium salt aqueous solution, phosphate buffer pH 7.4
Description: as §1, §2, §3, §4, §5

[3] = system: Mongolian gerbil cerebral infarction model; assay: Mongolian gerbil cerebral infarction model (acetic acid-induced thrombus): infarction area percentage and neurological symptom; assay type: in vivo; details: mean ± SE, n=6; for Infarction area: evaluated 24 h; for Neurological scores: score 0-4 at 24 h
Excerpt: Anesthesia was induced to a male Mongolian gerbil (body weight 55 to 65 g) by inhalation of 5% isoflurane (trade name Escain, Mylan Inc.), and maintained with 1 to 1.5% isoflurane. The Mongolian gerbil was fixed in a dorsal position, and the neck was dehaired and then disinfected with 70% ethanol. After median incision of the neck, the right common carotid artery was detached, clamped to block the blood flow temporarily, and coated with 100% acetic acid by 30 reciprocating motions so as to produce a thrombus. The blood vessel was reopened after 10 min of the blockage of the blood flow to transfer the thrombus by the blood stream into the brain to make it ischemic and generate cerebral infarction. The operating field was closed with an instant adhesive (trade name Aron Alpha (Krazy Glue), Toagosei Co., Ltd.) and disinfected with 70% ethanol.
Twenty four hours after the initiation of the operation neurological symptoms were observed as an indicator for cerebral infarction. Many types of neurological symptoms specific to cerebral infarction, such as extension of a hindlimb or circling to one direction, have been reported. Applying a modified evaluation method of the method proposed by Longa, et al. (Stroke 1989; 20:84-91) postoperative neurological symptoms were evaluated as per: no deficit, 0; extension of limb, 1; circling to one direction, 2; incline posture, 3; diminished motion, 4.
With respect to statistical analysis, for multiple comparisons was conducted firstly one-way analysis of variance (ANOVA) and then a Bonferroni test was conducted, if significant difference is detected. Significant difference was positively recognized with significance level 5% (P<0.05). All the results are expressed in mean±standard error.
After the evaluation of neurological symptoms according to the above method, the animal was decapitated under anesthesia with isoflurane. The cranial bone was exfoliated of skin and opened, and, after scission of optic nerve, the brain was extirpated and dipped in a physiological saline solution to remove attached body hairs, etc. The extirpated brain was placed in a brain matrix (RBM-1000C, ASI Instruments) to carry out coronal slicing from the frontal pole at thickness of 2 mm. The slices were dipped in 2% 2,3,5-triphenyl-2H-tetrazolium chloride (TTC), and incubated for staining at 37° C. for 30 min in a CO2 incubator. The colorless TTC is reduced by hydrogen liberated by the action of dehydrogenase contained in a normal cell converting to dark red colored water-insoluble 1,3,5-triphenylformazan (TPF), so that the normal cell is stained. Unstained area (white area) was defined as an infarction area. Meanwhile, the corpus callosum, which is commissural fibers connecting the right and left cerebral hemispheres, is not stained and is white, and therefore image processing for the analyses as described below was conducted excluding the corpus callosum.
After staining images of the brain slices were taken by a digital camera under a stereoscopic microscope. For analysis of the infarction area percentage, an image analysis software Image J (Version 1.4) was used. Full, excluding the corpus callosum, images of the taken 2nd, 3rd, and 4th brain slice images were converted to grayscale. From the grayscale images a histogram for the whole brain as the object scope was obtained showing in the ordinate the frequency of occurrence (frequency) at certain brightness, and showing in the abscissa the brightness (0 to 255). The sum from 0 to 255 was defined as the area size of the whole brain, and the sum from 160 to 219 was defined as the area size of the infarction area. Then the infarction area percentage was determined according to the following formula using the total area size of the infarction areas and the total area size of the whole brain, of the 3 brain slice images. Statistical analysis was conducted as above. […]

[4] = 1 mg/kg i.v., administration initiated 0 hr after ischemia
[5] = 1 mg/kg i.v., administration initiated 1 hr after ischemia
[6] = 10 mg/kg i.v., administration initiated 1 hr after ischemia
[7] = 3 mg/kg i.v., administration initiated 0 hr after ischemia
[8] = 3 mg/kg i.v., administration initiated 1 hr after ischemia
[9] = 3 mg/kg i.v., administration initiated 3 hr after ischemia

CC(C)=CCC/C(C)=C/CC[C@]1(C)Oc2c(c(O)cc3c2CNC3=O)C[C@@H]1O [SMTP-0]
free radical scavenging activity, Trolox equivalent [1]: 7.76 ± 0.36 molTE/mol

CC(C)=CCC/C(C)=C/CC[C@]1(C)Oc2c(c(O)cc3c2CN(CCO)C3=O)C[C@@H]1O [SMTP-1]
free radical scavenging activity, Trolox equivalent [1]: 4.35 ± 0.55 molTE/mol

CC(C)=CCC/C(C)=C/CCC1(C)Oc2c(c(O)cc3c2CN(C(Cc2ccccc2)C(=O)O)C3=O)CC1O (stereo not drawn) [SMTP-4]
free radical scavenging activity, Trolox equivalent [2]: 1.79 ± 0.02 molTE/mol

CC(C)=CCC/C(C)=C/CCC1(C)Oc2c(c(O)cc3c2CN([C@H](CC(C)C)C(=O)O)C3=O)CC1O (stereo partly drawn) [SMTP-5D]
free radical scavenging activity, Trolox equivalent [2]: 1.71 ± 0.20 molTE/mol

CC(C)=CCCC(C)=CCCC1(C)Oc2c(c(O)cc3c2CN(CCCCC(C(=O)O)N2Cc4c(cc(O)c5c4OC(C)(CCC=C(C)CCC=C(C)C)C(O)C5)C2=O)C3=O)CC1O (stereo not drawn) [SMTP-8]
free radical scavenging activity, Trolox equivalent [1]: 1.69 ± 0.14 molTE/mol

CSCC[C@@H](C(=O)O)N1Cc2c(cc(O)c3c2O[C@@](C)(CCC=C(C)CCC=C(C)C)[C@@H](O)C3)C1=O [SMTP-13]
free radical scavenging activity, Trolox equivalent [2]: 3.07 ± 0.51 molTE/mol

CC(C)=CCCC(C)=CCC[C@]1(C)Oc2c(c(O)cc3c2CN([C@@H](Cc2ccc(O)cc2)C(=O)O)C3=O)C[C@@H]1O [SMTP-14]
free radical scavenging activity, Trolox equivalent [2]: 4.43 ± 0.49 molTE/mol

CC(C)=CCCC(C)=CCC[C@]1(C)Oc2c(c(O)cc3c2CN(c2ccc(S(=O)(=O)O)cc2)C3=O)C[C@@H]1O [SMTP-42]
free radical scavenging activity, Trolox equivalent [2]: 3.28 ± 0.25 molTE/mol

CC1CNc2c(cccc2S(=O)(=O)N[C@@H](CCCNC(=N)N)C(=O)N2CC[C@@H](C)C[C@@H]2C(=O)O)C1 (stereo partly drawn) [argatroban]
Infarction area [3, 4]: 10.0 ± 2.66% | Neurological scores [3, 4]: 2.33 ± 0.61 | Infarction area [3, 5]: 12.1 ± 2.46% | Neurological scores [3, 5]: 2.50 ± 0.50 | Infarction area [3, 6]: 11.5 ± 2.57% | Neurological scores [3, 6]: 2.50 ± 0.56

CC1=NN(c2ccccc2)C(=O)C1 [edaravone]
Infarction area [3, 5]: 12.8 ± 2.87% | Neurological scores [3, 5]: 3.17 ± 0.17 | Infarction area [3, 7]: 9.95 ± 3.22% | Neurological scores [3, 7]: 1.50 ± 0.67 | Infarction area [3, 8]: 8.29 ± 1.61 % | Neurological scores [3, 8]: 1.50 ± 0.67 | Infarction area [3, 9]: 12.3 ± 5.59% | Neurological scores [3, 9]: 2.50 ± 0.56 | Infarction area [3, 6]: 9.29 ± 2.17% | Neurological scores [3, 6]: 1.83 ± 0.65

Clc1ccccc1CN1CCc2sccc2C1 [ticlopidine HCl]
Infarction area [3, 4]: 8.83 ± 1.73% | Neurological scores [3, 4]: 2.33 ± 0.42 | Infarction area [3, 5]: 13.1 ± 3.89% | Neurological scores [3, 5]: 2.67 ± 0.56 | Infarction area [3, 6]: 9.84 ± 1.81% | Neurological scores [3, 6]: 2.33 ± 0.42
